Measured values from patent US7996156B2, “Methods for predicting properties of molecules” (priority 2002, dated 2011).
Where two headings read alike, the source gives them in different places.

Legend:
[1] = system: estrogen receptor; conditions: cited from earlier work
[2] = target: T1, aryl hydrocarbon receptor (AhR) (Rattus norvegicus, UniProt P41738); conditions: cited from earlier work; for Experimental Log EC50: rodent hepatic cytosol
T1 construct: rodent hepatic cytosol as a source of the AhR; from tissue; host or cells: rodent hepatic cytosol
T1 sequence (P41738 10-853): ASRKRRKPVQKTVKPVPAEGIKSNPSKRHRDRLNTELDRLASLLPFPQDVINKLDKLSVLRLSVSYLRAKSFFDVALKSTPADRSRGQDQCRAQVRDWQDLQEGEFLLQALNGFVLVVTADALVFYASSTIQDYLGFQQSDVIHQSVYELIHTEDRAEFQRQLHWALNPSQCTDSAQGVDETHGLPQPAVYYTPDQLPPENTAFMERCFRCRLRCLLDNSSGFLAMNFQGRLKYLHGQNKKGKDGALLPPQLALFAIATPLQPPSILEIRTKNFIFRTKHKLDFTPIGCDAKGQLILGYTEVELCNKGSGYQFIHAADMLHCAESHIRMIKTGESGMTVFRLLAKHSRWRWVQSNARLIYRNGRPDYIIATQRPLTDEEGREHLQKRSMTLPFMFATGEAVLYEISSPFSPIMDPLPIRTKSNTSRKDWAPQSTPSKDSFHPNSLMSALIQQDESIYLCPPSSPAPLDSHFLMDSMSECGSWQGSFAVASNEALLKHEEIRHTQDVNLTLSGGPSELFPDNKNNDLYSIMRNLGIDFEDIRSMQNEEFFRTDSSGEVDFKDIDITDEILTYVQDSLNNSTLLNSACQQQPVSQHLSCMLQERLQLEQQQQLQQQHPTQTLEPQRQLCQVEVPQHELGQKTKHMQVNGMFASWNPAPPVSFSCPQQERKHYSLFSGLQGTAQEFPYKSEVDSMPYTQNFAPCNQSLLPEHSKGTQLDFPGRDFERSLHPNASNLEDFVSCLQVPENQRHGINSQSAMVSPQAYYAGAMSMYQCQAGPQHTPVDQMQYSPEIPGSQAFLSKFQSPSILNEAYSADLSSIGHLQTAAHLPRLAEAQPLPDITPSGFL

[3] = Minimum inhibitory concentration of cephalosporin antibiotics; format: cell-based; design: unit not given here
Text: This example describes the application of the disclosed CoSCoSA methods to model the minimum inhibitory concentration of cephalosporin antibotics, using only the through-bond (COSY-type) connections between carbons and between carbons and nitrogens in their structures. Bin sizes of 3 ppm by 3 ppm for carbon to carbon bins were used, and 10 ppm by 3 ppm for the nitrogen to carbon bins. […] The structures of the cephalosporins used in the model are shown below.

[4] = design: unit not given here; conditions: Minimal Inhibitory Concentration; cited from earlier work
[5] = target: T2, estrogen receptor (Rattus norvegicus, UniProt P06211); conditions: background statement; cited from earlier work
T2 construct: in rat uterine cytosol, which was obtained from ovariectomized uteri of Sprague-Dawley rats; from tissue; host or cells: uterine cytosol of ovariectomized Sprague-Dawley rats
T2 sequence (P06211 1-600): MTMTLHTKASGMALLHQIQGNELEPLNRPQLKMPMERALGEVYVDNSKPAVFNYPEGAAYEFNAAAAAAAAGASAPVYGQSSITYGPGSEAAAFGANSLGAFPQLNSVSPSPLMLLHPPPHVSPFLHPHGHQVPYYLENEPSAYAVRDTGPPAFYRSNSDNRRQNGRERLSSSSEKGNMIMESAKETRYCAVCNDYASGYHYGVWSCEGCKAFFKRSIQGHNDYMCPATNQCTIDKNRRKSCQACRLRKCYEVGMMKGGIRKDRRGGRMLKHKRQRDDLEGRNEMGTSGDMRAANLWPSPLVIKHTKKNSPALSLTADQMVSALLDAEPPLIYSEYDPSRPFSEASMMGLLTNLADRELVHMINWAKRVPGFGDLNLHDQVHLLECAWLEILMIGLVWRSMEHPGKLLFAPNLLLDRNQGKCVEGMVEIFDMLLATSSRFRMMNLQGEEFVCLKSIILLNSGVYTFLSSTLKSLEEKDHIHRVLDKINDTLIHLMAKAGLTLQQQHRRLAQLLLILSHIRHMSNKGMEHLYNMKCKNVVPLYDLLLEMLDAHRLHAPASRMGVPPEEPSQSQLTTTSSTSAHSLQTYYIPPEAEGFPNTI

[6] = experimental values of Waller et al. and Kuiper et al. external test sets, normalized to NCTR data
[7] = log scale, competitive binding, [3H]-2,3,7,8-tetrachlorodioxin, previously reported training data
[8] = previously reported competitive in vitro AhR binding, [3H]-2,3,7,8-tetrachlorodioxin radioligand, values are log EC50

Compound: Clc1ccc(Cl)c(-c2cc(Cl)ccc2Cl)c1 [2,2′5,5′-tetraCl-biphenyl]
- Normalized log (RBA) [1, 6]: −2.67

Compound: Oc1c(Cl)cc(Cl)c(Cl)c1-c1cc(Cl)cc(Cl)c1Cl [2,2′,3,3′,5,5′-heaxCl-6′-biphenylol]
- Normalized log (RBA) [1, 6]: −2.69

Compound: Oc1cc(Cl)c(-c2c(Cl)ccc(Cl)c2Cl)c(Cl)c1Cl [2,2′,3,3′,6,6′-hexaCl-4-biphenylol]
- Normalized log (RBA) [1, 6]: −2.74

Compound: Oc1cc(Cl)c(-c2c(Cl)cc(Cl)cc2Cl)c(Cl)c1Cl [2,2′,3,4′,6,6′-hexaCl-4-biphenylol]
- Normalized log (RBA) [1, 6]: −2.60

Compound: Oc1cc(Cl)c(-c2c(Cl)cccc2Cl)c(Cl)c1Cl [2,2′,3,6,6′-pentaCl-4-biphenylol]
- Normalized log (RBA) [1, 6]: −1.97

Compound: Clc1cc(Cl)c(-c2cc(Cl)c(Cl)cc2Cl)cc1Cl [2,2′,4,4′,5,5′-hexaCl-biphenyl]
- Experimental Log EC50 [2, 7]: −5.10
- Experimental Log EC50 [2, 8]: −5.10
- Normalized log (RBA) [1, 6]: −2.83

Compound: Clc1cc(Cl)c(-c2c(Cl)cc(Cl)cc2Cl)c(Cl)c1 [2,2′,4,4′,6,6′-hexaCl-biphenyl]
- Normalized log (RBA) [1, 6]: −1.87

Compound: Oc1ccc(-c2c(Cl)c(Cl)c(O)c(Cl)c2Cl)cc1 [2,3,5,6,tetraCl-4,4′-biphenyldiol]
- Normalized log (RBA) [1, 6]: −2.18

Compound: Clc1cc2c(cc1Cl)Oc1cc(Cl)c(Cl)cc1O2 [2,3,7,8-tetraCl-dibenzodioxin]
- binding to the AhR (in words) [2]: strong binder
- Experimental Log EC50 [2, 7]: −9.00
- Experimental Log EC50 [2, 8]: −9.00

Compound: Clc1cc2oc3cc(Cl)c(Cl)cc3c2cc1Cl [2,3,7,8-tetraCl-dibenzofuran]
- binding to the AhR (in words) [2]: strong binder
- Experimental Log EC50 [2, 7]: −8.60
- Experimental Log EC50 [2, 8]: −8.60

Compound: Clc1ccc2c(c1)Oc1cc(Cl)c(Cl)cc1O2 [2,3,7-triCl-dibenzodioxin]
- Experimental Log EC50 [2, 7]: −8.15
- Experimental Log EC50 [2, 8]: −8.15

Compound: Clc1cc(Cl)c(-c2cc(Cl)c(Cl)c(Cl)c2)cc1Cl [2,3′,4,4′,5,5′-hexaCl-biphenyl]
- Experimental Log EC50 [2, 7]: −5.80
- Experimental Log EC50 [2, 8]: −5.80

Compound: Clc1ccc(-c2cc(Cl)c(Cl)cc2Cl)cc1Cl [2,3′,4,4′,5-pentaCl-biphenyl]
- Experimental Log EC50 [2, 7]: −6.04
- Experimental Log EC50 [2, 8]: −6.04

Compound: Oc1ccc(-c2c(Cl)cc(Cl)cc2Cl)cc1 [2,4,6,-triCl-4′-biphenylol]
- Normalized log (RBA) [1, 6]: −0.16

Compound: Oc1ccc(-c2c(Cl)cccc2Cl)cc1 [2,6-dichloro-4′-biphenylol]
- Normalized log (RBA) [1, 6]: −1.11

Compound: Clc1ccc2c(c1)Oc1cc(Cl)ccc1O2 [2,8-diCl-dibenzodioxin]
- Experimental Log EC50 [2, 7]: −6.49
- Experimental Log EC50 [2, 8]: −6.49

Compound: Oc1ccc(-c2ccc(O)cc2Cl)cc1 [2-Cl-4,4′-biphenyldiol]
- Normalized log (RBA) [1, 6]: −0.61

Compound: Clc1ccc(-c2ccc(Cl)c(Cl)c2Cl)cc1Cl [2′,3′4,4′,5-pentaCl-biphenyl]
- Experimental Log EC50 [2, 7]: −5.85
- Experimental Log EC50 [2, 8]: −5.85

Compound: Clc1ccc(-c2cc(Cl)c(Cl)c(Cl)c2)cc1Cl [3,3′,4,4′,5-pentaCl-biphenyl]
- Experimental Log EC50 [2, 7]: −7.92
- Experimental Log EC50 [2, 8]: −7.92

Compound: Clc1ccc(-c2ccc(Cl)c(Cl)c2)cc1Cl [3,3′,4,4′-tetraCl-biphenyl]
- Experimental Log EC50 [2, 7]: −7.37
- Experimental Log EC50 [2, 8]: −7.37

Compound: CC(C)(C)c1cccc(O)c1 [3-tert-butylphenol]
- Normalized log (RBA) [1, 6]: −4.82

Compound: C[C@]12CC[C@H]3[C@@H](CC=C4C[C@@H](O)CC[C@@]43C)[C@@H]1CC[C@@H]2O [5-Androstenediol]
- Normalized log (RBA) [1]: −0.49

Compound: C[C@]12CC[C@@H]3c4ccc(O)cc4CC[C@H]3[C@@H]1CC(=O)[C@@H]2O [16-ketoestradiol]
- Normalized log (RBA) [1]: −0.38

Compound: CC12CCC3c4ccc(O)cc4CCC3C1CC(Br)C2O (stereo not shown) [16a-bromoestradiol]
- Normalized log (RBA) [1, 6]: 1.41

Compound: N[C@@H](C(=O)N[C@@H]1C(=O)N2C(C(=O)O)=C(Cl)CS[C@H]12)c1ccccc1 [Cefaclor]
- Log(1/MIC) [3]: −.90
- MIC [4]: 8

Compound: CCN1CCN(C(=O)N[C@@H](C(=O)N[C@@H]2C(=O)N3C(C(=O)O)=C(CSc4nnnn4C)CS[C@H]23)c2ccc(O)cc2)C(=O)C1=O [Cefaperazone]
- Log(1/MIC) [3]: −1.20
- MIC [4]: 16

Compound: C=CC1=C(C(=O)O)N2C(=O)[C@@H](NC(=O)/C(=N\OCC(=O)O)c3csc(N)n3)[C@H]2SC1 [Cefixime]
- Log(1/MIC) [3]: −.90

Compound: CO[C@@]1(NC(=O)CSCC#N)C(=O)N2C(C(=O)O)=C(CSc3nnnn3C)CS[C@@H]21 [Cefmetazole]
- Log(1/MIC) [3]: −1.20
- MIC [4]: 16

Compound: CO[C@@]1(NC(=O)C2SC(=C(C(N)=O)C(=O)O)S2)C(=O)N2C(C(=O)O)=C(CSc3nnnn3C)CS[C@@H]21 (stereo partly shown) [Cefotetan]
- Log(1/MIC) [3]: −1.20

Compound: CO[C@@]1(NC(=O)Cc2cccs2)C(=O)N2C(C(=O)O)=C(COC(N)=O)CS[C@@H]21 [Cefoxitin]
- Log(1/MIC) [3]: −1.20
- MIC [4]: 16

Compound: COCC1=C(C(=O)O)N2C(=O)[C@@H](NC(=O)/C(=N\OC)c3csc(N)n3)[C@H]2SC1 [Cefpodoxime]
- Log(1/MIC) [3]: −.30

Compound: CC(C)(O/N=C(\C(=O)N[C@@H]1C(=O)N2C(C(=O)[O-])=C(C[n+]3ccccc3)CS[C@H]12)c1csc(N)n1)C(=O)O [Ceftazidime]
- Log(1/MIC) [3]: −1.20
- MIC [4]: 16

Compound: CO/N=C(\C(=O)N[C@@H]1C(=O)N2C(C(=O)O)=CCS[C@H]12)c1csc(N)n1 [Ceftizoxime]
- Log(1/MIC) [3]: −.90
- MIC [4]: 8

Compound: CO/N=C(\C(=O)N[C@@H]1C(=O)N2C(C(=O)O)=C(COC(N)=O)CS[C@H]12)c1ccco1 [Cefuroxime]
- Log(1/MIC) [3]: −.60
- MIC [4]: 4

Compound: CC1=C(C(=O)O)N2C(=O)[C@@H](NC(=O)[C@H](N)c3ccccc3)[C@H]2SC1 [Cephalexin]
- Log(1/MIC) [3]: −.90
- MIC [4]: 8

Compound: CC(=O)OCC1=C(C(=O)O)N2C(=O)[C@@H](NC(=O)Cc3cccs3)[C@H]2SC1 [Cephalothin]
- Log(1/MIC) [3]: −.90
- MIC [4]: 8

Compound: CC(=O)OCC1=C(C(=O)O)N2C(=O)[C@@H](NC(=O)CSc3ccncc3)[C@H]2SC1 [Cephapirin]
- Log(1/MIC) [3]: −.90
- MIC [4]: 8

Compound: CC1=C(C(=O)O)N2C(=O)[C@@H](NC(=O)[C@H](N)C3=CCC=CC3)[C@H]2SC1 [Cephradine]
- Log(1/MIC) [3]: −.90
- MIC [4]: 8

Compound: CCC1=C(c2ccc(O)cc2)[C@H](C)c2cc(O)ccc21 [Indenestrol A (R)]
- Normalized log (RBA) [1, 6]: 1.08

Compound: CCC1=C(c2ccc(O)cc2)[C@@H](C)c2cc(O)ccc21 [Indenestrol A (S)]
- Normalized log (RBA) [1, 6]: 2.39

Compound: CCC(=O)[C@@]1(C)CC[C@H]2[C@@H]3CCC4=CC(=O)CCC4=C3CC[C@@]21C [R 5020]
- Normalized log (RBA) [1, 6]: −1.81

Compound: O=C(c1ccc(OCCN2CCCCC2)cc1)c1c(-c2ccc(O)cc2)sc2cc(O)ccc12 [Raloxifene]
- Normalized log (RBA) [1, 6]: 1.34

Compound: C[C@H]1CCCC(=O)CCC/C=C/c2cc(O)cc(O)c2C(=O)O1 [Zearalenone]
- Normalized log (RBA) [1, 6]: 0.91

Compound: C/C(=C(/C)c1ccc(O)cc1)c1ccc(O)cc1 [dimethystilbesterol]
- binding to the estrogen receptor (in words) [5]: bind strongly

Compound: Clc1c(Cl)c(Cl)c2c(c1Cl)Oc1c(Cl)c(Cl)c(Cl)c(Cl)c1O2 [octaCl-dibenzodioxin]
- Experimental Log EC50 [2, 7]: −6.00
- Experimental Log EC50 [2, 8]: −6.00
